Test results as given in patent US20130065965A1, “DI(4-CHLORO-PHENYLDIGUANIDO) DERIVATIVE WHICH IS FREE OF POTENTIAL GENOTOXICITY AND A PROCESS FOR REDUCING THE RESIDUAL AMOUNT OF P-CHLOROANILINE IN SAID DI(4-CHLORO-PHENYLDIGUANIDO) DERIVATIVE” (MEDICHEM S.A., priority 2009, published 2013).
Like-named read-outs stand apart in the source and are kept apart here. Values belong to the compound of their own block, whether it stands above or below them.

Assays:
[1] = assay type: physicochemical; conditions: for p-chloroaniline (ppm, HPLC method 1): methanol:acetic acid 8:1 (v/v), 40° C.; for p-chloroaniline (ppm, HPLC method 1), Average: methanol:acetic acid 8:1, 40° C.
Description: HPLCs were acquired on a Waters Alliance 2695 LC system. Column: Kromasil C18, 5 μm, 4.6×250 mm. Flow rate: 1 mL/min. Detector: UV, 254 nm. Mobile phase A: (33:9.5:57.5; v/v/v) 1-octanesulfonic acid sodium salt solution/glacial acetic acid/methanol. The 1-octanesulfonic acid sodium salt solution was prepared dissolving 1.6 g of 1-octanesulfonic acid sodium salt in 330 ml of water and adding 95 ml of glacial acetic acid and 575 ml of methanol. Mobile phase B: methanol. Gradient: 100% A (0-20 min)-85% A (40-65 min)-100% A (70-80 min). Temperature: 30° C. Sample: 10 mg/mL in mobile phase A. Injection volume: 10 μL.
Limit of detection (LOD): 3 ppm of p-chloroaniline.
Two 100 mg aliquots of a sample of chlorhexidine free of potential genotoxicity (Replicates A and B), having a content of p-chloroaniline below 40-50 ppm, a content of each of compounds of Markush formula (IV) (i.e. impurities B-G) below 0.15%, and a total impurities content below 1.5%, as measured by HPLC method 1, were dissolved in 1 mL of a mixture of methanol and acetic acid 8:1 (v/v), and each solution was stored in 5 different closed glass vials at 40° C. These vials were opened after 1, 2, 4, 14, and 25 days of storage, respectively, and the content of p-chloroaniline was measured (HPLC method 1). A linear regression line was calculated from the data obtained in Table 1 (y=2170x-356, R^2=0.991, where “y” represents the measured content of p-chloro aniline in ppm units and “x” represents the degradation time in day units; See FIG. 1).
Three 100 mg aliquots of a sample of chlorhexidine (Replicates C, D and E), having a content of p-chloroaniline of less than 40-50 ppm, a content of each of compounds of Markush formula (IV) (i.e. impurities B-G) higher than 0.15%, and a total impurities content below 2.5-3.0%, as measured by HPLC method 1, were dissolved in 1 mL of a mixture of methanol and acetic acid 8:1 (v/v), and each solution was stored in 2 different closed glass vials at 40° C. These vials were opened after 12 and 19 days of storage, respectively, and the content of p-chloroaniline was measured (HPLC method 1).

[2] = Stability study of aqueous solutions of chlorhexidine digluconate (p-chloroaniline by colorimetric method, European Pharmacopoeia 6.0); assay type: physicochemical; conditions: 20% aqueous solution; for p-chloroaniline (ppm, Colorimetry), 3 months: closed vial, protected from light
Description: In the U.S. Pharmacopoeia (First Supplement to the USP 33-NF 28 Reissue, USP Monographs: Chlorhexidine Gluconate Solution) it is described that the digluconate salt of chlorhexidine in aqueous solution should be preserved in tight containers, protected from light, and at controlled room temperature (i.e. about 25° C.). In this regard, the present inventors have observed that a 20% (w/v) aqueous solution of the chlorhexidine digluconate of the invention which is free of potential genotoxicity (i.e. having a content of p-chloroaniline lower than 40-50 ppm, with respect to the chlorhexidine base) can become moderately potentially genotoxic (i.e. showing a content of p-chloroaniline dramatically close to higher than 40-50 ppm) after 3 months of storage at 25° C., and highly potentially genotoxic (i.e. showing a content of p-chloroaniline much higher than 40-50 ppm) after 3 months of storage at 40° C. […] Conversely, when storing the aqueous solution of chlorhexidine digluconate of the invention at 15° C., the free-genotoxic stability (i.e. a content of p-chloroaniline lower than 40-50 ppm) is kept at low values for at least 3 months (See Example 12).
Two samples corresponding to a 20% (v/w) aqueous solution of chlorhexidine digluconate which was prepared from the chlorhexidine of Example 10, were stored in a closed vial, under different temperature conditions (i.e. 15° C., 25° C., and 40° C.) for 3 months in a closed chamber protected from light. The potentially free genotoxicity stability of the samples (i.e. the presence of p-chloroaniline) was measured by the colorimetric method described for measuring p-chloroaniline in chlorhexidine digluconate solution in European Pharmacopoeia 6.0 (page 1501).

[3] = 1 day of storage, sample with impurities B-G below 0.15%, 0.54% total impurities
[4] = 2 days of storage, sample with impurities B-G below 0.15%, 0.54% total impurities
[5] = 4 days of storage, sample with impurities B-G below 0.15%, 0.54% total impurities
[6] = 14 days of storage, sample with impurities B-G below 0.15%, 0.54% total impurities
[7] = 25 days of storage, sample with impurities B-G below 0.15%, 0.54% total impurities
[8] = 12 days of storage, sample with impurities B-G higher than 0.15%, 2.64% total impurities
[9] = 19 days of storage, sample with impurities B-G higher than 0.15%, 2.64% total impurities

- p-chloroaniline (ppm, HPLC method 1) [1, 3]: 1,556 ppm
- p-chloroaniline (ppm, HPLC method 1) [1, 4]: 3,357 ppm
- p-chloroaniline (ppm, HPLC method 1) [1, 5]: 6,284 ppm
- p-chloroaniline (ppm, HPLC method 1) [1, 6]: 33,753 ppm
- p-chloroaniline (ppm, HPLC method 1) [1, 7]: 52,561 ppm
Compound: N=C(NCCCCCCNC(=N)NC(=N)Nc1ccc(Cl)cc1)NC(=N)Nc1ccc(Cl)cc1 [Replicate A]

- p-chloroaniline (ppm, HPLC method 1) [1, 3]: 1,925 ppm
- p-chloroaniline (ppm, HPLC method 1) [1, 4]: 3,609 ppm
- p-chloroaniline (ppm, HPLC method 1) [1, 5]: 7,819 ppm
- p-chloroaniline (ppm, HPLC method 1) [1, 6]: 33,575 ppm
- p-chloroaniline (ppm, HPLC method 1) [1, 7]: 51,656 ppm
Compound: N=C(NCCCCCCNC(=N)NC(=N)Nc1ccc(Cl)cc1)NC(=N)Nc1ccc(Cl)cc1 [Replicate B]

- p-chloroaniline (ppm, HPLC method 1) [1, 8]: 33657 ppm
- p-chloroaniline (ppm, HPLC method 1) [1, 9]: 45243 ppm
Compound: N=C(NCCCCCCNC(=N)NC(=N)Nc1ccc(Cl)cc1)NC(=N)Nc1ccc(Cl)cc1 [Replicate C]

- p-chloroaniline (ppm, HPLC method 1) [1, 8]: 33153 ppm
- p-chloroaniline (ppm, HPLC method 1) [1, 9]: 46753 ppm
Compound: N=C(NCCCCCCNC(=N)NC(=N)Nc1ccc(Cl)cc1)NC(=N)Nc1ccc(Cl)cc1 [Replicate D]

- p-chloroaniline (ppm, HPLC method 1) [1, 8]: 33568 ppm
- p-chloroaniline (ppm, HPLC method 1) [1, 9]: 47577 ppm
Compound: N=C(NCCCCCCNC(=N)NC(=N)Nc1ccc(Cl)cc1)NC(=N)Nc1ccc(Cl)cc1 [Replicate E]

- p-chloroaniline, Increasing (%) ([2]; 3 months at 15° C.): 433%
- p-chloroaniline, Increasing (%) ([2]; 3 months at 25° C.): 1533%
- p-chloroaniline, Increasing (%) ([2]; 3 months at 40° C.): 4233%
- p-chloroaniline (ppm, Colorimetry), Initial ([2]; sample to be stored at 15° C.): 3 ppm
- p-chloroaniline (ppm, Colorimetry), Initial ([2]; sample to be stored at 25° C.): 3 ppm
- p-chloroaniline (ppm, Colorimetry), Initial ([2]; sample to be stored at 40° C.): 3 ppm
- p-chloroaniline (ppm, Colorimetry), 3 months ([2]; storage at 15° C.): 16 ppm
- p-chloroaniline (ppm, Colorimetry), 3 months ([2]; storage at 25° C.): 49 ppm
- p-chloroaniline (ppm, Colorimetry), 3 months ([2]; storage at 40° C.): 130 ppm
Compound: N=C(NCCCCCCNC(=N)NC(=N)Nc1ccc(Cl)cc1)NC(=N)Nc1ccc(Cl)cc1.O=C(O)[C@H](O)[C@@H](O)[C@H](O)[C@H](O)CO.O=C(O)[C@H](O)[C@@H](O)[C@H](O)[C@H](O)CO [chlorhexidine digluconate]

- linear regression line, degradation rate towards p-chloroaniline [1]: 2170x-356
- p-chloroaniline (ppm, HPLC method 1), Average ([1]; average of Replicates A and B, 1 day, 0.54% total impurities sample): 1,741 ppm
- p-chloroaniline (ppm, HPLC method 1), Average ([1]; average of Replicates A and B, 2 days, 0.54% total impurities sample): 3,483 ppm
- p-chloroaniline (ppm, HPLC method 1), Average ([1]; average of Replicates A and B, 4 days, 0.54% total impurities sample): 7,052 ppm
- p-chloroaniline (ppm, HPLC method 1), Average ([1]; average of Replicates A and B, 14 days, 0.54% total impurities sample): 33,664 ppm
- p-chloroaniline (ppm, HPLC method 1), Average ([1]; average of Replicates A and B, 25 days, 0.54% total impurities sample): 52,109 ppm
- p-chloroaniline (ppm, HPLC method 1), Average ([1]; average of Replicates C, D and E, 12 days, 2.64% total impurities sample): 33459 ppm
- p-chloroaniline (ppm, HPLC method 1), Average ([1]; average of Replicates C, D and E, 19 days, 2.64% total impurities sample): 46524 ppm
Compound: [H]/N=C(\N/C(=N/[H])NCCCCCCNC(=N)NC(=N)Nc1ccc(Cl)cc1)Nc1ccc(Cl)cc1 [chlorhexidine, 1-[amino-[6-[amino-[amino-(4-chlorophenyl)aminomethylidene]aminomethylidene]amino-hexylimino]methyl]imino-N-(4-chlorophenyl)-methanediamine]
